Reference: patent US8945595B2, “Insect repellent and attractants” (The Regents of the University of California, priority 2009, dated 2015)
Entries after “also recorded” stand apart in the source; their conditions may differ.

Assays:
wild-type Drosophila [1] = experiment: T-maze assay, avoidance to Drosophila stress odour (dSO); assay type: in vivo; conditions: odourant added to dSO
Method: T-maze behavior assay: a, Mean Preference Index (PI) of wild-type flies, given a choice between room air in 15 ml tube and either 0.1 ml of pure CO2 in a 15 ml tube (CO2), or binary mixtures of 0.1 ml pure CO2 and 1-hexanol (CO2+6ol) at 10^−1 dilution or 2,3-butanedione (CO2+d4on) at 10^−2 dilution, also in 15 ml tubes (see Methods). b, Mean PI of mutant flies given choices as in a. c, Mean PI of wild-type flies given choices between room air and odour collected from 70 untreated flies (mock), or 70 vortexed “emitter” flies of Drosophila stress odour (dSO), or mixtures of dSO with indicated odourants. n=6-9 trials (˜40 flies each), error bars=s.e.m. (T-test, *P<0.0001, **P<0.005, ***P<0.05).
T-maze behavioral testing using Drosophila stress odour, CO2, and mixtures were using techniques known in the art, with some modifications. In particular, the entire headspace from 15 ml capped “emitter” or “mock” fly tubes was withdrawn using fresh syringes and needles and infused into fresh capped 15 ml plastic tubes immediately prior to use in the T-maze. […] The avoidance response was calculated as a Preference Index (PI)=(number of flies in test arm−number of flies in control arm)/(total number of flies in assay). […] The avoidance response was calculated as a Preference Index (PI)=(number of flies in test arm−number of flies in control arm)/(total number of flies in assay). […]

wild-type Drosophila [2] = experiment: T-maze choice assay, avoidance behavior to CO2, wild-type flies; assay type: in vivo; conditions: 0.67% CO2; 1-hexanol 10^-1, 2,3-butanedione 10^-2
Method: (a) A t-maze is used to show preference to a test odor or to a solvent. Flies are starved 24 hrs prior to assay. All assays performed for 1-min in the dark. A negative preference index indicates avoidance. (a) Flies in a T-maze were offered a choice between a 15 ml tube infused with 0.1ml of CO2 prior to start of assay, and another that was infused with air. (b) wildtype and Or83b−/− flies were presented with CO2, a mixture of CO2 and 2,3-butanedione (d4on), or d4on alone. (c) Flies were exposed to 10 ul d4on 10^−2 for 1 min, allowed to recover for 2 min in clean air and then assayed for avoidance to CO2. A control exposure to 1 min of 2-methylphenol (2 mpol) at 10^−2 and then a recovery period of 2 min is also assayed for avoidance behavior to CO2. (d) Flies are exposed to d4on for 1 min, allowed to recover for 2 min, and then assayed for behavior to ethyl acetate (2AC). Behavior to 2AC without pre-exposure is also measured. […]
T-maze behavioral testing using Drosophila stress odour, CO2, and mixtures were using techniques known in the art, with some modifications. […] The avoidance response was calculated as a Preference Index (PI)=(number of flies in test arm−number of flies in control arm)/(total number of flies in assay). […] The avoidance response was calculated as a Preference Index (PI)=(number of flies in test arm−number of flies in control arm)/(total number of flies in assay). […]

Compound | avoidance behavior to dSO (Preference Index) (wild-type Drosophila [1]) | avoidance behavior to CO2 (Preference Index) (wild-type Drosophila [2])
CC(=O)C(C)=O [2,3-butanedione] | significantly reduced avoidance behavior; also recorded: completely abolished | reduction in mean avoidance behavior; also recorded: abolished
CCCCCCO [1-hexanol] | significantly reduced avoidance behavior | reduction in mean avoidance behavior
